Test results published in patent publication US7985731B2, “Sugar chain added GLP-1 peptide” (Otsuka Chemical Holdings Co., Ltd., priority 2007, dated 2011).
Peptide text beside a SMILES is read from it. * marks the point of attachment. X1 = CC(=O)N[C@@H]1[C@@H](O)[C@H](O[C@@H]2O[C@H](CO)[C@@H](O[C@@H]3O[C@H](CO[C@H]4O[C@H](CO)[C@@H](O)[C@H](O)[C@@H]4O[C@@H]4O[C@H](CO)[C@@H](O[C@@H]5O[C@H](CO[C@]6(C(=O)O)C[C@H](O)[C@@H](NC(C)=O)[C@H]([C@H](O)[C@H](O)CO)O6)[C@H](O)[C@H](O)[C@H]5O)[C@H](O)[C@H]4NC(C)=O)[C@@H](O)[C@H](O[C@H]4O[C@H](CO)[C@@H](O)[C@H](O)[C@@H]4O[C@@H]4O[C@H](CO)[C@@H](O[C@@H]5O[C@H](CO[C@]6(C(=O)O)C[C@H](O)[C@@H](NC(C)=O)[C@H]([C@H](O)[C@H](O)CO)O6)[C@H](O)[C@H](O)[C@H]5O)[C@H](O)[C@H]4NC(C)=O)[C@@H]3O)[C@H](O)[C@H]2NC(C)=O)[C@@H](CO)O[C@H]1NC(=O)C*

What was measured:
[1] = test system: db/db (BKS.Cg-+Lepr db/+Lepr db/Jcl) mice; test: Test Example 8: effect of lowering blood-sugar levels in diabetes model mice; type: in vivo; conditions: 9 nmol/kg intraperitoneal; for effect of lowering blood-sugar levels in db/db mice: 10-week-old male mice; for durability of effect of lowering blood-sugar levels in db/db mice: up to 300 minutes
Method: The oligosaccharide chain added GLP-1 peptide prepared in Example 2, 3, 4, 21 or 23 or the GLP-1 prepared in Comparative Example 1 in a PBS solution (9 nmol/10 ml) was intraperitoneally administered at a dose of 10 ml/kg to BKS.Cg−+Lepr^db/+Lepr^db/Jcl mice (10 week old, male). Blood was collected from the orbits before the compound administration and 30 minutes, 60 minutes, 120 minutes, 180 minutes and 300 minutes after the compound administration. Blood-sugar levels were measured using ACCU-CHEK Aviva (Roche Diagnostics).
The db/db (BKS.Cg−+Lepr^db/+Lepr^db/Jcl) mice serving as diabetes model mice have a mutation in a receptor of leptin which is anorexigenic/energy metabolism-accelerating hormone and develops conditions such as obesity or hyperglycemia.
Blood-sugar levels were measured over time, and their effects of lowering blood-sugar levels were compared with that of the GLP-1 without oligosaccharide chain addition of Comparative Example 1.

[2] = test system: C57BL/6JJcl mice; test: Test Example 7: Oral Glucose Tolerance Test (OGTT); type: in vivo; conditions: for activity of suppressing rise in blood-sugar levels in OGTT: 0.09 nmol/kg intraperitoneal; for dose dependence of activity of suppressing rise in blood-sugar levels in OGTT: doses 0.9 nmol/kg and 0.09 nmol/kg intraperitoneal
In short: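 Overnight-fasted mice received oral glucose 1 mg/g 30 minutes after treatment. Orbital blood taken before and at 30, 60, 120 minutes post-glucose. Blood glucose measured by glucometer.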

[3] = target: T1, mouse GLP-1 receptor (Mus musculus, UniProt O35659); test: Test Example 6: ability to synthesize cAMP in mouse GLP-1 receptor-expressing CHO-K1 cells; type: cell-based
T1 construct: expressed in transfected cells
T1 sequence (O35659 22-463): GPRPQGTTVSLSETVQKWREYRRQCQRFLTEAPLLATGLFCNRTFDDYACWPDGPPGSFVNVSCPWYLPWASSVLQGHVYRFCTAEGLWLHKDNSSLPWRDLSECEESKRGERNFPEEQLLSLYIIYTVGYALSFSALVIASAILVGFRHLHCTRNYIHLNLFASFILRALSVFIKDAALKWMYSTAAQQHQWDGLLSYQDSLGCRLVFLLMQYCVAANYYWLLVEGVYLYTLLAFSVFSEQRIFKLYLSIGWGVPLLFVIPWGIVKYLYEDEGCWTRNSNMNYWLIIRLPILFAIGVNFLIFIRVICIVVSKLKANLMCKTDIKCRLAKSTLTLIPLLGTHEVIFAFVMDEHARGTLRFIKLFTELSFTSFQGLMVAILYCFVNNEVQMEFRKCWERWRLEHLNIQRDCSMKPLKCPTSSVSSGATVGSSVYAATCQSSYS
Method: 1. Construction of Mouse GLP-1 Receptor-Expressing Vector
A mouse GLP1 receptor sense primer (5′-[…]-3′) (SEQ ID NO: 152) and a mouse GLP-1 receptor antisense primer (5′-[…]-3′) (SEQ ID NO: 153) capable of binding to the 5′ and 3′ ends of mouse GLP-1 receptor cDNA were separately synthesized. PCR was performed using Ex Taq polymerase (TaKaRa) with cDNA (Clone ID: 40046534, Open Biosystems) as a template. Specifically, 50 μL in total of reaction solution consisting of 1 μL of template cDNA (10 ng/μL), 4 μL of 2.5 mM dNTPs, 1 μL of primer solution mixtures (each 50 μM), 5 μL of ×10 Ex Taq polymerase Buffer, 0.25 μL of Ex Taq polymerase and 38.75 μL of sterilized water was used and allowed to react by 94° C. for 1 minute; 94° C. for 45 seconds, 55° C. for 1 minute and 72° C. for 2 minutes (35 cycles); and 72° C. for 10 minutes. The PCR reaction product was electrophoresed on 1% agarose gel, and the cDNA fragment was purified using Wizard SV Gel and PCR Clean-up System (Promega) and treated with restriction enzymes (EcoRI and NheI) to obtain mouse GLP-1 receptor cDNA.
To efficiently obtain cells highly expressing a mouse GLP-1 receptor, a pIRES-gfp vector was used as an expression vector. This vector was prepared by inserting, to a vector pEGFP-N1 (Clontech), an IRES gene-containing DNA fragment obtained by the restriction enzyme treatment (Sal I and BamHI) of pIRESpuro2 (Clontech).
The mouse GLP-1 receptor cDNA fragment was inserted to pIRES-gfp to thereby obtain a mouse GLP-1 receptor-expressing vector mGLP-1R/pIRES-gfp. The DNA sequence of the obtained vector was confirmed using ABI3100-Avant (Applied Biosystems).
2. Preparation of Mouse GLP-1 Receptor-Expressing CHO-K1 Cells
CHO-K1 cells (ATCC catalog No. CCL-61) were transfected with the obtained mGLP-1R/pIRES-gfp using FuGENE (registered trademark) (Roche) according to the instruction manual. The transfected CHO-K1 cells were cultured in RPMI1640 medium (Wako Pure Chemical Industries) containing 10% FCS (Hyclone) and penicillin-streptomycin (SIGMA). Drug selection was conducted by the addition of 1.0 mg/ml G418 (Wako Pure Chemical Industries). The drug resistance cells were sorted with a cell sorter (EPICS ALTRA, Beckman Coulter) using a GFP expression level as an index. After the sorting, the limiting dilution method was conducted to obtain cells highly expressing GFP, namely, cells highly expressing a mouse GLP-1 receptor. The obtained cells were used as mouse GLP-1 receptor-expressing CHO-K1 cells in the experiment shown below.
3. Analysis of Agonist Effect of Oligosaccharide Chain Added GLP-1 Peptide (Ability to Synthesize cAMP)
The mouse GLP-1 receptor-expressing CHO-K1 cells prepared in the preceding paragraph 2 were used to evaluate the agonist effect of the oligosaccharide chain added GLP-1 peptide using the ability to synthesize cAMP as an index.
The mouse GLP-1 receptor-expressing CHO-K1 cells were suspended at a concentration of 5×10^5 cells/ml in RPMI1640 medium containing 10% FCS. The cell suspension was seeded at a concentration of 100 μL per well to a flat-bottomed 96-well plate (Falcon) and cultured at 5% CO2 at 37° C. for 16 hours. The culture supernatant was discarded. The oligosaccharide chain added GLP-1 peptide dissolved in Krebs Ringer bicarbonate Buffer containing 2.5 mM glucose was added at a concentration of 100 μL/well and cultured at 37° C. for 30 minutes. The culture supernatant was immediately discarded. The amount of cAMP synthesized in the mouse GLP-1 receptor-expressing CHO-K1 cells was measured using cAMP ELISA Kit (GE Healthcare or Cayman) and used as an index for the agonist effect of the oligosaccharide chain added GLP-1 peptide on mouse GLP-1 receptors.
GLP-1 increases intracellular cAMP concentrations through the binding to its receptor and promotes insulin secretion. Thus, the activity of the oligosaccharide chain added GLP-1 peptide was evaluated using the ability to synthesize cAMP as an index. […]

[4] = 9 nmol/kg intraperitoneal 30 minutes before glucose 1 mg/g oral

SMILES: CC[C@H](C)[C@H](NC(=O)[C@H](Cc1ccccc1)NC(=O)[C@H](CCC(=O)O)NC(=O)[C@H](CCCCN)NC(=O)[C@H](C)NC(=O)[C@H](C)NC(=O)[C@H](CCC(N)=O)NC(=O)CNC(=O)[C@H](CCC(=O)O)NC(=O)[C@H](CC(C)C)NC(=O)[C@H](Cc1ccc(O)cc1)NC(=O)[C@H](CO)NC(=O)[C@H](CO)NC(=O)[C@@H](NC(=O)[C@H](CC(=O)O)NC(=O)[C@H](CO)NC(=O)[C@@H](NC(=O)[C@H](Cc1ccccc1)NC(=O)[C@@H](NC(=O)CNC(=O)[C@H](CCC(=O)O)NC(=O)[C@H](C)NC(=O)[C@@H](N)Cc1c[nH]cn1)[C@@H](C)O)[C@@H](C)O)C(C)C)C(=O)N[C@@H](C)C(=O)N[C@@H](Cc1c[nH]c2ccccc12)C(=O)N[C@@H](CC(C)C)C(=O)N[C@H](C(=O)N[C@@H](CCCCN)C(=O)NCC(=O)N[C@@H](CSCC(=O)N[C@@H]1O[C@H](CO)[C@@H](O[C@@H]2O[C@H](CO)[C@@H](O[C@@H]3O[C@H](CO[C@H]4O[C@H](CO)[C@@H](O)[C@H](O)[C@@H]4O[C@@H]4O[C@H](CO)[C@@H](O[C@@H]5O[C@H](CO[C@]6(C(=O)O)C[C@H](O)[C@@H](NC(C)=O)[C@H]([C@H](O)[C@H](O)CO)O6)[C@H](O)[C@H](O)[C@H]5O)[C@H](O)[C@H]4NC(C)=O)[C@@H](O)[C@H](O[C@H]4O[C@H](CO)[C@@H](O)[C@H](O)[C@@H]4O[C@@H]4O[C@H](CO)[C@@H](O[C@@H]5O[C@H](CO[C@]6(C(=O)O)C[C@H](O)[C@@H](NC(C)=O)[C@H]([C@H](O)[C@H](O)CO)O6)[C@H](O)[C@H](O)[C@H]5O)[C@H](O)[C@H]4NC(C)=O)[C@@H]3O)[C@H](O)[C@H]2NC(C)=O)[C@H](O)[C@H]1NC(C)=O)C(=O)NCC(=O)O)C(C)C [Example 4, 36Cys GLP-1-disialo]
- effect of lowering blood-sugar levels in db/db mice [1]: strong effect of lowering blood-sugar levels
- durability of effect of lowering blood-sugar levels in db/db mice [1]: blood-sugar levels were kept at low levels after 300 minutes
- activity of suppressing rise in blood-sugar levels in OGTT [2]: equivalent to that of the GLP-1 at a dose of 9 nmol/kg
- effect of suppressing rise in blood-sugar levels in OGTT ([2]; 0.9 nmol/kg intraperitoneal): suppressed rise in blood-sugar levels almost completely
- effect of suppressing rise in blood-sugar levels in OGTT [2, 4]: strong effect of suppressing rise in blood-sugar levels
- dose dependence of activity of suppressing rise in blood-sugar levels in OGTT [2]: dose-dependent activity of suppressing rise in blood-sugar levels
- activity of suppressing rise in blood-sugar levels in OGTT relative to GLP-1 (times) ([2]; from doses giving equivalent effect, GLP-1 at 9 nmol/kg): about 100 times
- cAMP synthesis activity compared with GLP-1 (in words) [3]: activity equal to or more than that of the GLP-1

SMILES: CC[C@H](C)[C@H](NC(=O)[C@H](Cc1ccccc1)NC(=O)[C@H](CCC(=O)O)NC(=O)[C@H](CCCCN)NC(=O)[C@H](C)NC(=O)[C@H](C)NC(=O)[C@H](CCC(N)=O)NC(=O)CNC(=O)[C@H](CCC(=O)O)NC(=O)[C@H](CC(C)C)NC(=O)[C@H](Cc1ccc(O)cc1)NC(=O)[C@H](CO)NC(=O)[C@H](CO)NC(=O)[C@@H](NC(=O)[C@H](CC(=O)O)NC(=O)[C@H](CO)NC(=O)[C@@H](NC(=O)[C@H](Cc1ccccc1)NC(=O)[C@@H](NC(=O)CNC(=O)[C@H](CCC(=O)O)NC(=O)[C@H](C)NC(=O)[C@@H](N)Cc1c[nH]cn1)[C@@H](C)O)[C@@H](C)O)C(C)C)C(=O)N[C@@H](CSCC(=O)N[C@@H]1O[C@H](CO)[C@@H](O[C@@H]2O[C@H](CO)[C@@H](O[C@@H]3O[C@H](CO[C@H]4O[C@H](CO)[C@@H](O)[C@H](O)[C@@H]4O[C@@H]4O[C@H](CO)[C@@H](O[C@@H]5O[C@H](CO[C@]6(C(=O)O)C[C@H](O)[C@@H](NC(C)=O)[C@H]([C@H](O)[C@H](O)CO)O6)[C@H](O)[C@H](O)[C@H]5O)[C@H](O)[C@H]4NC(C)=O)[C@@H](O)[C@H](O[C@H]4O[C@H](CO)[C@@H](O)[C@H](O)[C@@H]4O[C@@H]4O[C@H](CO)[C@@H](O[C@@H]5O[C@H](CO[C@]6(C(=O)O)C[C@H](O)[C@@H](NC(C)=O)[C@H]([C@H](O)[C@H](O)CO)O6)[C@H](O)[C@H](O)[C@H]5O)[C@H](O)[C@H]4NC(C)=O)[C@@H]3O)[C@H](O)[C@H]2NC(C)=O)[C@H](O)[C@H]1NC(C)=O)C(=O)N[C@@H](Cc1c[nH]c2ccccc12)C(=O)N[C@@H](CC(C)C)C(=O)N[C@H](C(=O)N[C@@H](CCCCN)C(=O)NCC(=O)N[C@@H](CCCNC(=N)N)C(=O)NCC(=O)O)C(C)C [Example 21, 30Cys GLP-1-disialo] (H-HAEGTFTSDVSSYLEGQAAKEFIC(X1)WLVKGRG-OH)
- effect of lowering blood-sugar levels in db/db mice [1]: strong effect of lowering blood-sugar levels
- durability of effect of lowering blood-sugar levels in db/db mice [1]: blood-sugar levels were kept at low levels after 300 minutes
- activity of suppressing rise in blood-sugar levels in OGTT [2]: weaker activity of suppressing rise in blood-sugar levels than that of the 36Cys GLP-1-disialo at the same dose
- effect of suppressing rise in blood-sugar levels in OGTT ([2]; 0.9 nmol/kg intraperitoneal): suppressed rise in blood-sugar levels almost completely
- effect of suppressing rise in blood-sugar levels in OGTT [2, 4]: strong effect of suppressing rise in blood-sugar levels
- dose dependence of activity of suppressing rise in blood-sugar levels in OGTT [2]: dose-dependent activity of suppressing rise in blood-sugar levels
- cAMP synthesis activity compared with GLP-1 (in words) [3]: activity equal to or more than that of the GLP-1
